Data from ChEMBL document CHEMBL1201862, “PubChem BioAssay data set” (2004).
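Briefly, cells in 96-well plates were exposed to five compound concentrations for 48 h, and endpoints were estimated by linear interpolation. GI50 = concentration required for 50% inhibition of growth.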 Calls of active or inactive are those of the source. No stated cut-off is given here; in the data, active = GI50 up to about 1.1 µM and inactive = higher. *1 amine or outer side, *2 acyl side, *3 side chain or, on linkers, in order; H or OH if unused. Where a SMILES comes first, the peptide text is derived from it. Bridges are numbered along the chain shown (N, C = ends). [ ]: non-standard residue; d: D form. The star is where a group is joined. X56 = CC(C)C(C)C(C(=O)[*:2])N(C)[*:1]; Picolinoyl(3-OH) = O=C(c1ncccc1O)*; NMePhg = CN[CH](C(=O)O)c1ccccc1; Hyp = O=C(O)[CH]1C[CH](O)CN1; Sar = CNCC(=O)O

How the values were obtained:
Test in all cases: NCI anticancer screen, dose series, 48 h
[1] = system: CAKI-1
[2] = system: DLD-1
[3] = system: HCT-116
[4] = system: HOP-18
[5] = system: HOP-62
[6] = system: HT-29
[7] = system: KM-20L2
[8] = system: LOX IMVI
[9] = system: M14
[10] = system: M19-MEL
[11] = system: NCI-H460
[12] = system: OVCAR-8
[13] = system: SNB-78
[14] = system: SR
[15] = system: SW-620
[16] = system: TK-10
[17] = system: U-251
[18] = system: RPMI-8226

N#CC(Nc1cccc(C(F)(F)F)c1)c1ccccc1C(F)(F)F (stereo unspecified) was tested, and the GI50 [1] was 2.73 µM (inactive), the GI50 [2] was 15.9 µM (inactive) and the GI50 [3] was 7.66 µM (inactive). The GI50 [4] was 13.5 µM (inactive), the GI50 [5] was 3.52 µM (inactive) and the GI50 [6] was 13.7 µM (inactive). For the same molecule, the GI50 [7] was 13.8 µM (inactive), the GI50 [8] was 5.51 µM (inactive) and the GI50 [9] was 7.29 µM (inactive). For the same molecule, the GI50 [10] was 7.23 µM (inactive), the GI50 [11] was 15.5 µM (inactive) and the GI50 [12] was 16.3 µM (inactive). The GI50 [13] was 20.1 µM (inactive), the GI50 [14] was 4.82 µM (inactive) and the GI50 [15] was 3.08 µM (inactive). The GI50 [16] was 14.7 µM (inactive) and the GI50 [17] was 16.9 µM (inactive).
In the case of COC1/C=C\C=C(/C)C(=O)NC2=CC(=O)C=C(C2=O)C(OC)C(C)CC(OC)C(OC)C(C)/C=C(/C)C1OC(N)=O (stereo unspecified), the GI50 [1] is reported as 12.2 µM (inactive), the GI50 [2] is reported as 1.59 µM (inactive) and the GI50 [3] is reported as 1.34 µM (inactive). For the same molecule, the GI50 [4] was 0.29 µM (active), the GI50 [5] was 2.92 µM (inactive) and the GI50 [6] was 0.608 µM (active). For the same molecule, the GI50 [7] was 3.2 µM (inactive), the GI50 [8] was 3.19 µM (inactive) and the GI50 [10] was 2.2 µM (inactive). For the same molecule, the GI50 [11] was 11.5 µM (inactive), the GI50 [12] was 1.65 µM (inactive) and the GI50 [18] was 0.807 µM (active). The GI50 [13] was 2.14 µM (inactive), the GI50 [15] was 0.146 µM (active) and the GI50 [17] was 12.7 µM (inactive).
In the case of CSCC[C@@H]1C(=O)N(C)[C@H](C(C)(C)C)N1C(=O)c1ccccc1, the GI50 [2] is reported as > 100 µM (inactive), the GI50 [3] is reported as > 100 µM (inactive) and the GI50 [4] is reported as > 100 µM (inactive). The GI50 [5] was > 100 µM (inactive), the GI50 [6] was > 81.5 µM (inactive) and the GI50 [7] was > 100 µM (inactive). The GI50 [8] was > 100 µM (inactive), the GI50 [10] was > 100 µM (inactive) and the GI50 [11] was > 100 µM (inactive). The GI50 [12] was > 100 µM (inactive), the GI50 [18] was > 100 µM (inactive) and the GI50 [13] was > 100 µM (inactive). For the same molecule, the GI50 [15] was > 100 µM (inactive) and the GI50 [17] was > 100 µM (inactive).
In the case of CC(C)CC1NC(=O)C(NC(=O)c2ncccc2O)C(C)OC(=O)C(c2ccccc2)N(C)C(=O)C(C)NC(=O)C(C(C)C(C)C)N(C)C(=O)CN(C)C(=O)C2CC(O)CN2C1=O (stereo unspecified) ({Picolinoyl(3-OH)}-TL[Hyp][Sar][X56]A[NMePhg]; ester 1-C; configuration not given here), the GI50 [1] is reported as 89.1 µM (inactive), the GI50 [2] is reported as 82.4 µM (inactive) and the GI50 [3] is reported as 26.9 µM (inactive). For the same molecule, the GI50 [4] was 83.6 µM (inactive), the GI50 [5] was > 125 µM (inactive) and the GI50 [6] was 37.6 µM (inactive). The GI50 [7] was 7.93 µM (inactive), the GI50 [8] was > 125 µM (inactive) and the GI50 [10] was 68.2 µM (inactive). For the same molecule, the GI50 [11] was 12.3 µM (inactive), the GI50 [12] was 15.7 µM (inactive) and the GI50 [18] was 35.8 µM (inactive). The GI50 [13] was > 125 µM (inactive), the GI50 [15] was 32.7 µM (inactive) and the GI50 [17] was 40.8 µM (inactive).
With CCCCCCCCCCCCCCCCCCC1=C(O)C(=O)C=C(OC)C1=O the GI50 [1] was 39.5 µM (inactive), the GI50 [2] was 47.3 µM (inactive) and the GI50 [3] was 43.7 µM (inactive). For the same molecule, the GI50 [4] was 43 µM (inactive), the GI50 [5] was 34.3 µM (inactive) and the GI50 [6] was 88.9 µM (inactive). The GI50 [7] was 42.9 µM (inactive), the GI50 [9] was 53.2 µM (inactive) and the GI50 [10] was 39.1 µM (inactive). For the same molecule, the GI50 [11] was 88.7 µM (inactive), the GI50 [12] was 32.4 µM (inactive) and the GI50 [13] was 71.9 µM (inactive). For the same molecule, the GI50 [14] was 43.8 µM (inactive), the GI50 [15] was 51.4 µM (inactive) and the GI50 [16] was 40.4 µM (inactive). For the same molecule, the GI50 [17] was 39 µM (inactive).
In the case of COc1ccccc1/N=N/c1c(-c2ccccc2)nn(C(=O)CC(=O)Nc2ccccc2Cl)c1-c1ccccc1, the GI50 [2] is reported as > 100 µM (inactive), the GI50 [3] is reported as > 100 µM (inactive) and the GI50 [4] is reported as > 100 µM (inactive). For the same molecule, the GI50 [5] was > 100 µM (inactive), the GI50 [6] was 99.3 µM (inactive) and the GI50 [7] was > 100 µM (inactive). The GI50 [8] was > 100 µM (inactive), the GI50 [9] was > 100 µM (inactive) and the GI50 [10] was > 100 µM (inactive). For the same molecule, the GI50 [11] was > 100 µM (inactive), the GI50 [12] was > 100 µM (inactive) and the GI50 [18] was 65.5 µM (inactive). The GI50 [13] was > 100 µM (inactive), the GI50 [14] was > 100 µM (inactive) and the GI50 [15] was > 100 µM (inactive). The GI50 [16] was > 100 µM (inactive) and the GI50 [17] was > 100 µM (inactive).
For COc1cc2c(cc1OC)C(=O)Cc1ccc3c(c1CNCC2)OCO3, the GI50 [1] was > 100 µM (inactive), the GI50 [2] was > 100 µM (inactive) and the GI50 [3] was > 100 µM (inactive). The GI50 [4] was > 100 µM (inactive), the GI50 [5] was > 100 µM (inactive) and the GI50 [6] was > 100 µM (inactive). For the same molecule, the GI50 [7] was > 100 µM (inactive), the GI50 [9] was > 100 µM (inactive) and the GI50 [10] was > 100 µM (inactive). The GI50 [11] was > 100 µM (inactive), the GI50 [12] was > 100 µM (inactive) and the GI50 [18] was > 100 µM (inactive). For the same molecule, the GI50 [13] was > 100 µM (inactive), the GI50 [15] was > 100 µM (inactive) and the GI50 [16] was > 100 µM (inactive). For the same molecule, the GI50 [17] was > 100 µM (inactive).
CCC1(O)C[C@H]2CN(CCCc3c([nH]c4ccccc34)[C@@](C(=O)OC)(c3cc4c(cc3OC)N(C)C3[C@](O)(C(=O)OC)[C@H](OC(C)=O)[C@]5(CC)C=CCN6CC[C@]43[C@H]65)C2)C1 (stereo partly specified) was tested, and the GI50 [1] was 2.33 µM (inactive), the GI50 [2] was 2.22 µM (inactive) and the GI50 [3] was 0.855 µM (active). The GI50 [4] was 0.146 µM (active), the GI50 [5] was 0.465 µM (active) and the GI50 [6] was 0.425 µM (active). For the same molecule, the GI50 [7] was 0.298 µM (active), the GI50 [8] was 0.583 µM (active) and the GI50 [9] was 0.726 µM (active). For the same molecule, the GI50 [10] was 0.902 µM (active), the GI50 [11] was 0.557 µM (active) and the GI50 [12] was 2.96 µM (inactive). The GI50 [18] was 0.908 µM (active), the GI50 [13] was 0.543 µM (active) and the GI50 [15] was 0.497 µM (active). The GI50 [16] was > 10 µM (inactive) and the GI50 [17] was 0.565 µM (active).
In the case of CCCCCCCC(=O)OC[C@@H](C[As](=O)(O)O)OC(=O)CCCCCCC, the GI50 [2] is reported as 13.6 µM (inactive), the GI50 [3] is reported as 10.6 µM (inactive) and the GI50 [4] is reported as 18.2 µM (inactive). For the same molecule, the GI50 [5] was 18.7 µM (inactive), the GI50 [6] was 14.1 µM (inactive) and the GI50 [7] was 16.9 µM (inactive). For the same molecule, the GI50 [9] was 14.9 µM (inactive), the GI50 [10] was 14.9 µM (inactive) and the GI50 [12] was 13.5 µM (inactive). For the same molecule, the GI50 [18] was 10.3 µM (inactive), the GI50 [13] was 10.4 µM (inactive) and the GI50 [14] was 4.95 µM (inactive). The GI50 [15] was 12.9 µM (inactive) and the GI50 [17] was 5.74 µM (inactive).
For COC(=O)c1nc(-c2ccc3c(n2)C(=O)C(=N)C(OC)=C3O)c(N)c(-c2ccc(OC)c(OC)c2O)c1C, the GI50 [1] was 0.628 µM (active), the GI50 [2] was 1.17 µM (inactive) and the GI50 [3] was 0.738 µM (active). For the same molecule, the GI50 [4] was 2.03 µM (inactive), the GI50 [5] was 0.194 µM (active) and the GI50 [6] was 1.73 µM (inactive). The GI50 [7] was 2.24 µM (inactive), the GI50 [8] was 0.29 µM (active) and the GI50 [10] was 0.254 µM (active). For the same molecule, the GI50 [11] was < 0.01 µM (active), the GI50 [12] was 1.08 µM (active) and the GI50 [18] was 1.21 µM (inactive). For the same molecule, the GI50 [13] was 2.35 µM (inactive), the GI50 [15] was 1.33 µM (inactive) and the GI50 [17] was 0.377 µM (active).
For COc1ccc(C2C3CCCC(C3=O)C(c3ccc(OC)cc3)N2N=O)cc1 (stereo unspecified), the GI50 [1] was 29.9 µM (inactive), the GI50 [2] was 33.9 µM (inactive) and the GI50 [3] was 29 µM (inactive). For the same molecule, the GI50 [4] was 8.91 µM (inactive), the GI50 [5] was 38.5 µM (inactive) and the GI50 [6] was 21.4 µM (inactive). For the same molecule, the GI50 [7] was 30.7 µM (inactive), the GI50 [8] was 18 µM (inactive) and the GI50 [10] was 32.4 µM (inactive). For the same molecule, the GI50 [11] was 20.6 µM (inactive), the GI50 [12] was 37 µM (inactive) and the GI50 [18] was 20.7 µM (inactive). For the same molecule, the GI50 [13] was > 66.4 µM (inactive), the GI50 [15] was 42.9 µM (inactive) and the GI50 [17] was 40.6 µM (inactive).
With CCCSCC(P(=O)(O)O)P(=O)(O)O.NC1CCCCC1 the GI50 [1] was > 100 µM (inactive), the GI50 [2] was > 100 µM (inactive) and the GI50 [3] was > 100 µM (inactive). For the same molecule, the GI50 [4] was > 100 µM (inactive), the GI50 [5] was > 100 µM (inactive) and the GI50 [6] was > 100 µM (inactive). The GI50 [7] was > 100 µM (inactive), the GI50 [8] was > 100 µM (inactive) and the GI50 [10] was > 100 µM (inactive). The GI50 [11] was > 100 µM (inactive), the GI50 [12] was > 100 µM (inactive) and the GI50 [18] was > 100 µM (inactive). For the same molecule, the GI50 [13] was > 100 µM (inactive), the GI50 [15] was > 100 µM (inactive) and the GI50 [17] was > 100 µM (inactive).
